Reference: PMC5983770, “Preferential Inhibition of Wnt/β-Catenin Signaling by Novel Benzimidazole Compounds in Triple-Negative Breast Cancer” (International Journal of Molecular Sciences, 2018)
Values after ≈ are worked out from the molar mass of the structure shown. Like-named read-outs stand apart in the source and are kept apart here.

Tests used:
[1] = test system: SUM149, SUM159, MDA-MB-231 and MDA-MB-468 TNBC cell lines
Protocol: (§3) MCF10A and TNBC cells (2 × 10^3) were seeded with appropriate growth media containing 10% FBS in each well of tissue culture-treated 96-well black plates (Corning #3904) (Corning, NY, USA) 16 h prior to treatment. […] Cell viability was then evaluated with Cell Titer Glo (Promega, Madison, WI, USA) and luminescence was measured using a TOPCount NXT plate reader (PerkinElmer, Waltham, MA, USA). Curves were fit according to nonlinear regression and IC50 values were calculated using GraphPad Prism 7. Cells were treated in quadruplicates and experiments were performed three times.

MDA-MB-468 cells = assay: Annexin V/PI apoptosis assay (flow cytometry); type: cell-based, human; settings: MDA-MB-468, 5 µM, 48 h
Protocol: (§1) Cells were seeded in 6-well tissue-culture treated plates (Corning) for overnight incubation. Culture media was replaced with growth media containing 1% FBS. Cells were treated with compounds for 48 h prior to harvest. Apoptosis/necrosis was detected by the FITC Annexin V Apoptosis Detection Kit I from Becton Dickinson (San Jose, CA, USA). Cells positive for Annexin V, propidium iodide (PI) or both were all designated as apoptotic.

MDA-MB-231 cells = assay: Annexin V/PI apoptosis assay (flow cytometry); type: cell-based, human; settings: 48 h; for apoptosis compared to DMSO / scatterplot quadrant Q1 (Annexin V/PI) / scatterplot quadrant Q3 (Annexin V/PI) / scatterplot quadrant Q2 (Annexin V/PI) / scatterplot quadrant Q4 (Annexin V/PI): MDA-MB-231, 5 µM; for percentage of MDA-MB-231 cells in the late apoptotic phase (% of total): 5 µM, vehicle control 8.1%; for scatterplot quadrant Q1 (Annexin V/PI): DMSO 1.1; for scatterplot quadrant Q3 (Annexin V/PI): DMSO 3.4; for scatterplot quadrant Q2 (Annexin V/PI): DMSO 8.1; for scatterplot quadrant Q4 (Annexin V/PI): DMSO 87.5
Protocol: as §1

[2] = cited from earlier work
Wnt/β-catenin signaling [3] = settings: cited from earlier work
Notch signaling (Hes1) = assay: Western blot of Notch signaling (Hes1); type: cell-based; settings: as summarised in the abstract
Protocol: (§2) Cells were seeded in 6-well tissue-culture treated plates for 48 h until 80% confluency prior to treatment. Whole cell extracts were prepared with Laemmli buffer (5% SDS, 10% glycerol, 0.5 M Tris-Cl) supplemented with protease and phosphatase inhibitors and equivalent amounts of proteins were separated by SDS-PAGE. Proteins were transferred to polyvinylidene difluoride (PVDF) membrane (Bio-Rad, Hercules, CA, USA) and blocked with 5% BSA in tris-buffered saline (TBS) supplemented with 0.1% Tween-20 for 1 h. Membranes were incubated with primary antibody overnight on a shaker at 4 °C. They were then washed and incubated with secondary antibody for 1 h. Bands were visualized with the Enhanced Chemiluminescence Detection reagents (PerkinElmer).

phosphodiesterase = test system: phosphodiesterase; set-up: method as in PMID 22264761; settings: screen of thirty 6-nitrobenzimidazoles; cited from earlier work
p4EBP1 (mTOR signaling) [4] = assay: Western blot of 4EBP1 phosphorylation (mTOR signaling) in TNBC cell lines; type: cell-based, human; settings: for phosphorylation of 4EBP1: both TNBC cell lines, 18 h
Protocol: as §2

Wnt/β-catenin signaling [5] = assay: Effect on Wnt/β-catenin signaling (Western blot); type: cell-based; settings: as summarised in the abstract
Protocol: as §2

[6] = test system: SUM149, SUM159, MDA-MB-231 and MDA-MB-468 TNBC cell lines; assay: In vitro cytotoxicity (Cell Titer Glo cell viability); settings: for selective cytotoxicity against TNBC cell lines compared to MCF10A cells: TNBC cell lines versus MCF10A cells; for IC50: Homo sapiens, 72 h, read-out: IC50 values for TNBC cell lines (cell viability)
Protocol: as §3

pSTAT3 (Y705), STAT3 = assay: Western blot of STAT3 phosphorylation and STAT3β isoform; type: cell-based; settings: for expression of the pSTAT3β and total STAT3β isoform (lower band): MDA-MB-468 and MCF10A cells; for expression of the pSTAT3β and total STAT3β isoform (lower band) / STAT3 phosphorylation: 18 h; for STAT3 phosphorylation: TNBC and MCF10A cells, 2.5 or 5 µM
Protocol: as §2

phosphorylated LRP6 [7] = assay: Western blot of phosphorylated LRP6 in MCF10A cells; type: cell-based; settings: 2.5 or 5 µM, 18 h
Protocol: as §2

phosphorylated LRP6 [8] = assay: Western blot of phosphorylated LRP6 in TNBC cell lines; type: cell-based, human; settings: both TNBC cell lines (MDA-MB-231, MDA-MB-468), 18 h
Protocol: as §2

cyclin D1 and survivin [9] = assay: Western blot of cyclin D1 and survivin in TNBC cells; type: cell-based, human; settings: 2.5 and 5 µM, 18 h
Protocol: as §2

[10] = test system: active (non-phosphorylated) β-catenin; assay: Western blot of active β-catenin after cytoplasmic-nuclear fractionation; type: cell-based, human; settings: 5 µM, 18 h; for nuclear active β-catenin expression (Western blot): TNBC cells
Protocol: as §2
Cells were lysed using the CERI and CERII reagents of the cytoplasmic-nuclear extraction kit (ThermoFisher), to obtain cytoplasmic fractions following treatment. Nuclear fractions were isolated by using 1× Laemmli buffer and sonication for a few seconds. Membrane was incubated overnight with active β-catenin (MilliporeSigma, Burlington, MA, USA), lamin A/C and tubulin antibodies.

[11] = test system: noncancerous MCF10A cells; assay: In vitro cytotoxicity (Cell Titer Glo cell viability); type: cell-based; settings: Homo sapiens, MCF-10A; 0–5 µM, 72 h
Protocol: as §3

active β-catenin = assay: Immunocytochemistry of active β-catenin; type: cell-based, human; settings: MDA-MB-231 and MDA-MB-468 cells, 5 µM, 18 h
Protocol: Cells were seeded on coverslips for 48 h prior to treatment with DMSO and SR compounds for 18 h. Cells were washed with PBS, fixed with 4% paraformaldehyde for 20 min and permeabilized with 0.5% Triton X-100 for 20 min. Following blocking with 3% BSA for 30 min, cells were incubated overnight with active β-catenin antibody (MilliporeSigma) at 4 °C. Cells were incubated with Alexa 488 goat anti-mouse secondary antibody (1:1000) at room temperature for 1 h. To counterstain, cells were incubated with 1:5000 Hoechst 33342 for 20 min. […] Images were obtained at 20× magnification.

p4EBP1 (mTOR signaling) [12] = assay: Western blot of 4EBP1 phosphorylation (mTOR signaling) in MCF10A cells; type: cell-based; settings: 18 h
Protocol: as §2

cyclin D1 and survivin [13] = assay: Western blot of cyclin D1 and survivin in MCF10A cells; type: cell-based; settings: 2.5 µM, 18 h, compared with niclosamide
Protocol: as §2

[14] = rat liver microsomes; introduction, no reference given; cited from earlier work
[15] = pH 7.4; introduction, no reference given; cited from earlier work
[16] = set-up: method as in PMID 20194742; settings: cited from earlier work

Molecule	apoptosis compared to DMSO (MDA-MB-468 cells)	apoptosis compared to DMSO (MDA-MB-231 cells)	phosphorylated LRP6 (phosphorylated LRP6 [7])	IC50 [11] [nM]	IC50 [6] [nM]	expression of the pSTAT3β and total STAT3β isoform (lower band) (pSTAT3 (Y705), STAT3)	STAT3 phosphorylation (pSTAT3 (Y705), STAT3)	percentage of MDA-MB-231 cells in the late apoptotic phase (% of total) (MDA-MB-231 cells) [%]	scatterplot quadrant Q1 (Annexin V/PI) (MDA-MB-231 cells)	scatterplot quadrant Q3 (Annexin V/PI) (MDA-MB-231 cells)	scatterplot quadrant Q2 (Annexin V/PI) (MDA-MB-231 cells)	scatterplot quadrant Q4 (Annexin V/PI) (MDA-MB-231 cells)	also measured
2-(5-Chloro-6-fluoro-1H-benzo[d]imidazol-2-yl)-4-fluorophenol [SRI35361]	did not induce significantly more apoptosis	did not induce significantly more apoptosis											selective cytotoxicity against TNBC cell lines compared to MCF10A cells [1]: not selectively cytotoxic
C=CCN1CC(=O)N2[C@@H](Cc3ccc(OP(=O)([O-])[O-])cc3)C(=O)N(Cc3cccc4cn(C)nc34)C[C@@H]2N1C(=O)NCc1ccccc1.[Na+].[Na+] [CWP232228]													blood concentration ([2]; IV, 200 mg/kg, for 7 h): 800 ng/mL; toxicity in animals [2]: minimal toxicity and no obvious clinical signs
O=[N+]([O-])c1ccc2nc(-c3cc(Cl)ccc3O)[nH]c2c1 [SRI32529]													potency in inhibiting Wnt/β-catenin signaling relative to SRI33576 (Wnt/β-catenin signaling [3]): less potency; effect on Notch signaling (Notch signaling (Hes1)): mitigated; outcome of screen for phosphodiesterase inhibitors (phosphodiesterase): not selected as one of the effective inhibitors; effect on mTOR signaling (p4EBP1 (mTOR signaling) [4]; as summarised in the abstract): mitigated; effect on Wnt/β-catenin signaling (Wnt/β-catenin signaling [5]): inhibited Wnt/β-catenin signaling; selective cytotoxicity against TNBC cell lines compared to MCF10A cells [6]: not selectively cytotoxic; effect on STAT3 signaling (pSTAT3 (Y705), STAT3; as summarised in the abstract): mitigated
Oc1ccc(Cl)cc1-c1nc2ccc(C(F)(F)F)cc2[nH]1 [SRI33576]	induced significantly more apoptosis	induced significantly more apoptosis	not	5000	1900 to 3200	not	noticeably less of an effect	24	10.7	11.1	24.0	54.3	inhibition of Wnt/β-catenin signaling (Wnt/β-catenin signaling [3]; colorectal cancer cells, decreasing cytosolic axin2 and β-catenin and overall c-myc, survivin and cyclin D1): inhibit Wnt/β-catenin signaling; phosphorylated LRP6 (phosphorylated LRP6 [8]; 5 µM): decreased phosphorylated LRP6; expression of cyclin D1 and survivin (cyclin D1 and survivin [9]): decreased expression; nuclear active β-catenin expression (Western blot) [10]: decreased nuclear active β-catenin expression; phosphorylation of 4EBP1 (p4EBP1 (mTOR signaling) [4]; 5 µM): inhibited phosphorylation of 4EBP1; nuclear active β-catenin expression (immunocytochemistry) (active β-catenin): a decrease in nuclear active β-catenin expression; phosphorylation of 4EBP1 (p4EBP1 (mTOR signaling) [12]; 5 µM): did not yield such a change
Oc1ccc(F)cc1-c1nc2c(Cl)cc(Cl)cc2[nH]1 [SRI35357, 2-(5,7-Dichloro-3H-benzo[d]imidazol-2-yl)-4-fluorophenol]													selective cytotoxicity against TNBC cell lines compared to MCF10A cells [6]: not selectively cytotoxic
Oc1ccc(Cl)cc1-c1nc2cc(Cl)c(Cl)cc2[nH]1 [SRI35889, 4-Chloro-2-(5,6-dichloro-1H-benzo[d]imidazol-2-yl)phenol]	induced significantly more apoptosis	induced significantly more apoptosis	not	5400	1100 to 2400	not	noticeably less of an effect	26.5	15.1	11.0	26.5	47.4	cyclin D1 or survivin expression (cyclin D1 and survivin [13]): did not affect cyclin D1 or survivin expression as much as niclosamide; phosphorylated LRP6 (phosphorylated LRP6 [8]; 2.5 and 5 µM): decreased phosphorylated LRP6; expression of cyclin D1 and survivin (cyclin D1 and survivin [9]): decreased expression; effect on Notch signaling (Notch signaling (Hes1)): not affecting; cytoplasmic β-catenin (Western blot) ([10]; MDA-MB-468 cells): decreased cytoplasmic β-catenin; nuclear active β-catenin expression (Western blot) [10]: decreased nuclear active β-catenin expression; phosphorylation of 4EBP1 (p4EBP1 (mTOR signaling) [4]; 2.5 and 5 µM): inhibited 4EBP1 phosphorylation; nuclear active β-catenin expression (immunocytochemistry) (active β-catenin): a decrease in nuclear active β-catenin expression; phosphorylation of 4EBP1 (p4EBP1 (mTOR signaling) [12]; 2.5 µM, compared with TNBC cell lines): less of a change
O=C(Nc1ccc([N+](=O)[O-])cc1Cl)c1cc(Cl)ccc1O [niclosamide, reference compound]			decreased phosphorylated LRP6	1000	300 to 1000	markedly decreased	downregulated STAT3 phosphorylation	29.5	6.09	10.5	29.5	53.9	metabolic stability t1/2 [14]: 29 min; solubility [15]: 1.6 µM (≈ 0.523 µg/mL)
Mesd: an LRP6 antagonist (protein, UniProt Q14696 34-234, looked up) LRP chaperone MESD: AEGSPGTPDESTPPPRKKKKDIRDYNDADMARLLEQWEKDDDIEEGDLPEHKRPSAPVDFSKIDPSKPESILKMTKKGKTLMMFVTVSGSPTEKETEEITSLWQGSLFNANYDVQRFIVGSDRAIFMLRDGSYAWEIKDFLVGQDRCADVTLEGQVYPGKGGGSKEKNKTKQDKGKKKKEGDLKSRSSKEENRAGNKREDL													time of highest blood concentration ([16]; mice dosed with 5, 10, 20 mg/kg): 2 h; bioavailability ([16]; mice): about 60%
